Measurements as given in patent US20050129772A1, “Compositions comprising an HIV protease inhibitor” (Agouron Pharmaceuticals, Inc., priority 2003, published 2005).
“And” between values parts separate entries of the source, which are not always exact repeats. Equal entries are not always repeated.

Assays:
[1] = in vitro dissolution test in PBS at pH 6.5 and 290 mOsm/kg, 37° C.; type: physicochemical; design: AUC: concentration or dose not given beside the values; settings: for AUC90 (area under the concentration-versus-time curve during the initial ninety minutes) / AUC1200 / C1200 (Compound A concentration at 1200 minutes) / MDC90 (maximum concentration of drug during the initial ninety minutes): dose 3000 μg/mL; for Compound A Concentration: 3000 μg/mL if all dissolved
Procedure: An in vitro dissolution test was performed to determine whether the amorphous Compound A of Example 1 provides concentration-enhancement relative to the crystalline form of Compound A. For this test, a sufficient amount of material was added to a microcentrifuge test tube so that the concentration of Compound A would have been 3000 μg/mL, if all of Compound A had dissolved. The test was run in duplicate. The tubes were placed in a 37° C. temperature-controlled chamber, and 1.8 mL PBS at pH 6.5 and 290 mOsm/kg was added to each respective tube. The samples were quickly mixed using a vortex mixer for about 60 seconds. The samples were centrifuged at 13,000 G at 37° C. for 1 minute. The resulting supernatant solution was then sampled and diluted 1:6 (by volume) with methanol and then analyzed by high-performance liquid chromatography (HPLC). HPLC analysis was performed using a Phenomenex Luna C18 column. The mobile phase consisted of 55% 20 mM KH2PO4, adjusted to pH 3 with H3PO4, and 45% acetonitrile. UV absorbance was measured at 210 nm. The contents of each tube were mixed on the vortex mixer and allowed to stand undisturbed at 37° C. until the next sample was taken. Samples were collected at 4, 10, 20, 40, 90 and 1200 minutes. Control 1 consisted of crystalline Form I of Compound A alone, and a sufficient amount of material was added so that the concentration of Compound A would have been 3000 μg/mL, if all of Compound A had dissolved. The concentrations of drug obtained in these samples were used to determine the maximum concentration of drug (“MDC90”), the area under the concentration-versus-time curve (“AUC90”) during the initial ninety minutes, and the Compound A concentration at 1200 minutes (“[…]”). Example 2 was prepared by combining amorphous Compound A and a concentration-enhancing polymer. A simple physical mixture of Compound A and the concentration-enhancing polymer hydroxypropyl methyl cellulose acetate succinate (AQUOT-MG, available from Shin Etsu, Tokyo, Japan) was prepared by adding 5.4 mg of amorphous Compound A prepared as in Example 1 and 0.6 mg of HPMCAS to a centrifuge tube. The dry powders were mixed using a vortex mixer for 1 minute. Dissolution tests were performed as described in Example 1. […] For these tests, a sufficient amount of material was added so that the concentration of Compound A would have been 3000 μg/mL, if all of Compound A had dissolved. […] Examples 37A, 37B and 37C were prepared as in Example 2, but with the following exceptions: Example 37A was 5.4 mg Compound A and 0.6 mg HPMCAS; Example 37B was 5.4 mg Compound A and 0.167 mg HPMCAS; and Example 37C was 5.4 mg Compound A and 0.055 mg HPMCAS. Example 37D consisted of amorphous Compound A alone. MDC360 is the maximum dissolved drug concentration within the first 360 minutes, and AUC360 is the area under the dissolved drug concentration versus time curve at 360 minutes.

[2] = oral dosing to fasted beagle dogs, plasma drug concentration; type: in vivo; settings: 25 mgA/kg; for AUC0-Tlast: oral gavage suspension in 0.5 wt % Methocel, plasma
Procedure: The area under the concentration-versus-time curve (“AUCO-Tlast”, ng*hr/mL), from the time the dose was administered to the last sample, is shown in Table 17. Crystalline Form I of Compound A (Control 1) and amorphous Compound A (Example 1) were tested using a similar protocol. The dose was administered to dogs as a suspension in a solution containing 0.5 wt % Methocel® (HPMC, USP grade, 4000 cps, Dow Chemical Co.). Oral administration of the aqueous drug suspensions was facilitated using an oral gavage equipped with a polyethylene tube insert. The polyethylene tube insert was used to accurately deliver the desired volume of dose by displacement, without the need for additional volume of water to rinse the tube. The dose was 25 mgA/kg (“mgA” refers to mg of active drug).

[3] = aqueous solubility of crystalline Compound A; type: physicochemical; settings: 26° C.
Source text: The compound (4R)—N-allyl-3-{(2S,3S)-2-hydroxy-3-[(3-hydroxy-2-methylbenzoyl)amino]-4-phenylbutanoyl}-5,5-dimethyl-1,3-thiazolidine-4-carboxamide (also called “(R)-3-((2S,3S)-2-hydroxy-3-{[1-(3-hydroxy-2-methyl-phenyl)-methanoyl]-amino}-4-phenyl-butanoyl)-5,5-dimethyl-thiazolidine-4-carboxylic acid allylamide,” “(4R)-3-[(2S,3S)-2-hydroxy-3-(3-hydroxy-2-methyl-benzoylamino)-4-phenyl-butyryl]-5,5-dimethyl-thiazolidine-4-carboxylic acid allylamide,” or “4-thiazolidinecarboxamide, 3-[(2S,3S)-2-hydroxy-3-[(3-hydroxy-2-methylbenzoyl)amino]-1-oxo-4-phenylbutyl]-5,5-dimethyl-N-2-propenyl-, (4R)-,” and hereinafter referred to as “Compound A”) is an inhibitor of the HIV protease enzyme that may be used for the treatment of HIV-infected mammals, such as humans. Compound A and its preparation are disclosed in U.S. patent application Ser. Nos. 10/166,979 filed Jun. 11, 2002; 60/527,477, filed Dec. 4, 2003, and, 10/782,602, filed Dec. 4, 2003, all of which incorporated herein by reference for this purpose. […] This low aqueous solubility, combined with a low in vivo permeability, result in low oral bioavailability for crystalline Compound A.

[4] = time 10 min, PBS pH 6.5, 37° C.
[5] = time 20 min, PBS pH 6.5, 37° C.
[6] = time 40 min, PBS pH 6.5, 37° C.
[7] = time 90 min, PBS pH 6.5, 37° C.
[8] = time 1200 min, PBS pH 6.5, 37° C.
[9] = PBS pH 6.5, 37° C., listed as Ex 1

Row | Structure (SMILES) | AUC0-Tlast [2] [ng·h/mL] | AUC90 (area under the concentration-versus-time curve during the initial ninety minutes) ([1]; PBS pH 6.5, 37° C.) | AUC1200 ([1]; PBS pH 6.5, 37° C.) | C1200 (Compound A concentration at 1200 minutes) ([1]; PBS pH 6.5, 37° C.) [µg/mL] | MDC90 (maximum concentration of drug during the initial ninety minutes) ([1]; PBS pH 6.5, 37° C.) | AUC ([1]; time 0 min, PBS pH 6.5, 37° C.) [µg·min/mL] | Compound A Concentration ([1]; time 0 min, PBS pH 6.5, 37° C.) [µg/mL] | AUC ([1]; time 4 min, PBS pH 6.5, 37° C.) [µg·min/mL] | Compound A Concentration ([1]; time 4 min, PBS pH 6.5, 37° C.) [µg/mL] | AUC [1, 4] [µg·min/mL] | Compound A Concentration [1, 4] [µg/mL] | AUC [1, 5] | Compound A Concentration [1, 5] [µg/mL] | AUC [1, 6] | Compound A Concentration [1, 6] [µg/mL] | AUC [1, 7] | Compound A Concentration [1, 7] [µg/mL] | AUC [1, 8] | Compound A Concentration [1, 8] [µg/mL] | further results
1 | C=CCNC(=O)[C@H]1N(C(=O)[C@@H](O)[C@H](Cc2ccccc2)NC(=O)c2cccc(O)c2C)CSC1(C)C [Example 37D, (4R)—N-allyl-3-{(2S,3S)-2-hydroxy-3-[(3-hydroxy-2-methylbenzoyl)amino]-4-phenylbutanoyl}-5,5-dimethyl-1,3-thiazolidine-4-carboxamide] | – | – | – | – | – | – | – | – | – | – | – | – | – | – | – | – | – | – | – | AUC360 (area under the dissolved drug concentration versus time curve at 360 minutes) ([1]; dissolution as in Example 2): 180,000 min*μg/ml; MDC360 (maximum dissolved drug concentration within the first 360 minutes) ([1]; dissolution as in Example 2): 1190 µg/mL; C1200 ([1]; dissolution as in Example 2 (Example 37 series)): 140 µg/mL
2 | C=CCNC(=O)[C@H]1N(C(=O)[C@@H](O)[C@H](Cc2ccccc2)NC(=O)c2cccc(O)c2C)CSC1(C)C [Control 1, (4R)—N-allyl-3-{(2S,3S)-2-hydroxy-3-[(3-hydroxy-2-methylbenzoyl)amino]-4-phenylbutanoyl}-5,5-dimethyl-1,3-thiazolidine-4-carboxamide] | 300 | 9200 µg·min/mL | 132,000 min*μg/mL | 109 | 112 µg/mL | 0 | 0 | 200 | 100 | 800 | 100 | 1800 µg·min/mL | 106 | 3900 µg·min/mL | 101 | 9200 µg·min/mL | 112 | 131,700 min * μg/mL | 109 | –
3 | C=CCNC(=O)[C@H]1N(C(=O)[C@@H](O)[C@H](Cc2ccccc2)NC(=O)c2cccc(O)c2C)CSC1(C)C [Compound A, (4R)—N-allyl-3-{(2S,3S)-2-hydroxy-3-[(3-hydroxy-2-methylbenzoyl)amino]-4-phenylbutanoyl}-5,5-dimethyl-1,3-thiazolidine-4-carboxamide] | – | – | – | – | – | – | – | – | – | – | – | – | – | – | – | – | – | – | – | aqueous solubility ([3]; 0.1 N HCl (pH 1.2)): about 0.16 mgA/mL; aqueous solubility ([3]; normal saline (pH 8.2)): ~0.14 mgA/mL; aqueous solubility ([3]; unbuffered water (pH 8.3)): about 0.16 mgA/mL
4 | C=CCNC(=O)[C@H]1N(C(=O)[C@@H](O)[C@H](Cc2ccccc2)NC(=O)c2cccc(O)c2C)CSC1(C)C [Example 1, (4R)—N-allyl-3-{(2S,3S)-2-hydroxy-3-[(3-hydroxy-2-methylbenzoyl)amino]-4-phenylbutanoyl}-5,5-dimethyl-1,3-thiazolidine-4-carboxamide] | 3500 | 75,900 min * μg/mL | 233,000 min*μg/mL | 126 | 1153 µg/mL and 1150 µg/mL | 0 | 0 | 2100 | 1070 | 8800 | 1140 | 20,200 min * μg/mL | 1150 | 43,200 min * μg/mL | 1150 | 75,900 min * μg/mL | 158 | 233,200 min * μg/mL | 126 | relative bioavailability (AUC of test composition divided by AUC of crystalline Form I of Compound A alone) ([2]; oral): 11.7 fold; AUC90 relative to crystalline Form I of Compound A ([1]; PBS pH 6.5, 37° C.): 8.3 fold; MDC relative to crystalline Form I of Compound A ([1]; PBS pH 6.5, 37° C.): 10.3 fold; AUC90 (area under the concentration-versus-time curve during the initial ninety minutes) [1, 9]: 75,900 min * μg/mL; C1200 (Compound A concentration at 1200 minutes) [1, 9]: 126 µg/mL; MDC90 (maximum concentration of drug during the initial ninety minutes) [1, 9]: 1150 µg/mL
